Measurements published in patent publication EP0728482A2, “Use of hcp specific compounds to enhance erythropoiesis” (SMITHKLINE BEECHAM CORPORATION, priority 1995, dated 1996).

Molecular target: T1, human SH-PTP2 SH2 domain (Homo sapiens, UniProt Q06124)
T1 construct: made in house; host or cells: E. coli (pGEX-2T)
T1 sequence (Q06124 1-106): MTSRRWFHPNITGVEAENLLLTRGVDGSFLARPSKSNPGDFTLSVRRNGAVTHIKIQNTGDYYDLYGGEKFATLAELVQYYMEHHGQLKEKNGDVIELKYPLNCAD
Experiment: ELISA-based SH2 domain / pY peptide binding assay, SH-PTP2 SH2 domain
Conditions: Ki calculated from IC50 with the expanded equation
Experimental: The inhibitory activity of compounds at the different human SH2 domains was determined in vitro using SH2 domains expressed as fusion proteins in E. coli. The SH2 domains used herein were the human forms of the src SH2 domain, Grb2 SH2 domain, lck SH2 domain, fyn SH2 domain, SH-PTP2 SH2 domain, p85 SH2 domain and hcp SH2 domain.
Fusion proteins having the structure GST-X-SH2 were prepared as described in the GST gene fusion kit system available from Pharmacia (New Jersey). GST is the tagging sequence glutathione s-transferase epitope (SEQ ID NO: 8) for fyn, Grb2 and SH-PTP2 and is the tagging sequence glutathione s-transferase epitope (SEQ ID NO: 9) for p85. SH2 refers to the SH2 domains of fyn, Grb2, p85 and SH-PTP2 which were expressed and purified using glutathione Sepharose 4B (Pharmacia) according to "Current Protocols in Molecular Biology", ed. FM Ausubel et al., pub. John Wiley and Sons, Inc., (1995), p 16.7.1. X is an appropriate linker, preferably of 6 to 21 base pairs, used to keep the SH2 construct in frame and complement cloning. As such, the sequence of X is not critical. One skilled in the art can readily construct the appropriate linker. The DNA sequence encoding each GST-X-SH2 fusion protein was designed such that the indicated restriction sites (BamH1 and EcoRI) flank the SH2 region. […]

Ki: > 1000 µM
SMILES: CCCCCCNC(=O)[C@H]1CC[C@H](CNC(=O)c2ccc(C(=O)c3ccc(C(=O)O)cc3)cc2)CC1 [Compound 6, 4-carboxy-benzophenone-4-carboxamido-trans-4-methyl-cyclohexyl-N-hexyl carboxamide]
